Laboratory results reported in ChEMBL document CHEMBL1138773, “Design and synthesis of aryl diphenolic azoles as potent and selective estrogen receptor-beta ligands” (J Med Chem, 2004).

Tests used:
[1] = target: T1, Estrogen receptor (Homo sapiens, UniProt P03372)
T1 sequence (P03372 whole entry): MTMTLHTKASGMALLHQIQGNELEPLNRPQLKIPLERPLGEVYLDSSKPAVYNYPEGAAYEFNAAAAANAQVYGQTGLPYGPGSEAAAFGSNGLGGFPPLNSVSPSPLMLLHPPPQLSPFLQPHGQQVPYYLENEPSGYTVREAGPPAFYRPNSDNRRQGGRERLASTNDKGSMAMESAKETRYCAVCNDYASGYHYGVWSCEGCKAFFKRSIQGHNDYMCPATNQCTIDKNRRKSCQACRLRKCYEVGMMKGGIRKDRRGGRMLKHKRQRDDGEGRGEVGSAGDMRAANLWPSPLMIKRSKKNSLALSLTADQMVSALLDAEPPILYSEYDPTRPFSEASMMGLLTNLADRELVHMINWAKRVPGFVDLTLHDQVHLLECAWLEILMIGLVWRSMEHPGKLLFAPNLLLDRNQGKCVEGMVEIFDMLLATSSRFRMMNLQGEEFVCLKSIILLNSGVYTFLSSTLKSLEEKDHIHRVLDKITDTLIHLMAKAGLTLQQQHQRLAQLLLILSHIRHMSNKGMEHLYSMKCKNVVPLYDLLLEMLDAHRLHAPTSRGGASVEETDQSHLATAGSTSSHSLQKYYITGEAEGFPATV

[2] = target: Estrogen receptor beta (Homo sapiens, UniProt Q92731)
Chain of Estrogen receptor beta (Homo sapiens, UniProt Q92731) (Q92731 whole entry): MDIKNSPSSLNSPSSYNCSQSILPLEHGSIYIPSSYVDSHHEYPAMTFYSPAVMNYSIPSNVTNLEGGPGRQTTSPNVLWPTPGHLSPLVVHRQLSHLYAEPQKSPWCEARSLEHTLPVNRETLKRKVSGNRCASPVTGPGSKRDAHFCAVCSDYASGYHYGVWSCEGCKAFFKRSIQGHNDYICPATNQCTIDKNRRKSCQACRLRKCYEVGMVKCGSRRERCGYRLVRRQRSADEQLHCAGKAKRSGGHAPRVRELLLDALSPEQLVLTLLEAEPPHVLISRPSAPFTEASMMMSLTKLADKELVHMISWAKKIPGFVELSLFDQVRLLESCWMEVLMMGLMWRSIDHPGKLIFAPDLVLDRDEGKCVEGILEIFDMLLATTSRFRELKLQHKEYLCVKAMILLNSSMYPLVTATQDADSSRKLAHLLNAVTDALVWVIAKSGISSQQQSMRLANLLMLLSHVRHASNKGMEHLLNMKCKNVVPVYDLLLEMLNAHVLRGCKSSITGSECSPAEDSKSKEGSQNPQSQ

[3] = tested on: Rattus norvegicus; test: Trabecular bone mineral density in ovariectomized rat when treated with compound at 10 mg/kg dose; format: functional, Trabecula
[4] = target: Estrogen receptor beta (Rattus norvegicus, UniProt Q62986)
Chain of Estrogen receptor beta (Rattus norvegicus, UniProt Q62986) (Q62986 whole entry): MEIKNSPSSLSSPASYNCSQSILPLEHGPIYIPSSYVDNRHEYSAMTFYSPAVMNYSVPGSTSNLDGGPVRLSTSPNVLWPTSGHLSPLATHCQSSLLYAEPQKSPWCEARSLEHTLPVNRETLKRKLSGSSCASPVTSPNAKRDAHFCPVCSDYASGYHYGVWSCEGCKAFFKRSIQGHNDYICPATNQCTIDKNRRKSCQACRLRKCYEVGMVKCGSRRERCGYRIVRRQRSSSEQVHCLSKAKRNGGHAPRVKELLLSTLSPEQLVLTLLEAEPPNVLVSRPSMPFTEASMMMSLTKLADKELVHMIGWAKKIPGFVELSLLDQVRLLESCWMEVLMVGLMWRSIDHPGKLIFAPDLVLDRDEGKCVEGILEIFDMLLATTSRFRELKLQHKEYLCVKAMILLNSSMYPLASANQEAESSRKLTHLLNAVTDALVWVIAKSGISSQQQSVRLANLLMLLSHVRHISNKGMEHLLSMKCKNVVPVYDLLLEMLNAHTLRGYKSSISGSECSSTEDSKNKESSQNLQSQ

[5] = target: T2, Estrogen receptor (Rattus norvegicus, UniProt P06211)
T2 sequence (P06211 whole entry): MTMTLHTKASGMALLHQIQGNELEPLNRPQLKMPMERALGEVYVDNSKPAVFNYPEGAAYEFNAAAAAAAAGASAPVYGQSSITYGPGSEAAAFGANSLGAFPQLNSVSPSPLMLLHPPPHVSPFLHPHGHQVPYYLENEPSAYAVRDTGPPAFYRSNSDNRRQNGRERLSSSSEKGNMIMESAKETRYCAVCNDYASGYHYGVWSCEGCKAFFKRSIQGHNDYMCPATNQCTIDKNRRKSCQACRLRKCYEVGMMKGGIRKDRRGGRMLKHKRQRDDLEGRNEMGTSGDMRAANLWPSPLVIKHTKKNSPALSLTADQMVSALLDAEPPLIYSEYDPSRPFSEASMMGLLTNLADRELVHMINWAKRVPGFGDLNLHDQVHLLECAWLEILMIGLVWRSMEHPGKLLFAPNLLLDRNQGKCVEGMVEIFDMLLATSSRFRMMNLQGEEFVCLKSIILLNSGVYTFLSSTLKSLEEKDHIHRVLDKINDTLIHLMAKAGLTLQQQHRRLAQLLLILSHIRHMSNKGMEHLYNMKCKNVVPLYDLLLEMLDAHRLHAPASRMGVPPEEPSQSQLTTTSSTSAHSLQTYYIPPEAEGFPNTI

[6] = target: Estrogen receptor beta (Rattus norvegicus) (UniProt Q62986); details: Prostate gland
Chain of Estrogen receptor beta (Rattus norvegicus) (Q62986 whole entry): as the sequence (Q62986 whole entry) above

[7] = target: T3, Estrogen receptor (Mus musculus, UniProt P19785)
T3 sequence (P19785 whole entry): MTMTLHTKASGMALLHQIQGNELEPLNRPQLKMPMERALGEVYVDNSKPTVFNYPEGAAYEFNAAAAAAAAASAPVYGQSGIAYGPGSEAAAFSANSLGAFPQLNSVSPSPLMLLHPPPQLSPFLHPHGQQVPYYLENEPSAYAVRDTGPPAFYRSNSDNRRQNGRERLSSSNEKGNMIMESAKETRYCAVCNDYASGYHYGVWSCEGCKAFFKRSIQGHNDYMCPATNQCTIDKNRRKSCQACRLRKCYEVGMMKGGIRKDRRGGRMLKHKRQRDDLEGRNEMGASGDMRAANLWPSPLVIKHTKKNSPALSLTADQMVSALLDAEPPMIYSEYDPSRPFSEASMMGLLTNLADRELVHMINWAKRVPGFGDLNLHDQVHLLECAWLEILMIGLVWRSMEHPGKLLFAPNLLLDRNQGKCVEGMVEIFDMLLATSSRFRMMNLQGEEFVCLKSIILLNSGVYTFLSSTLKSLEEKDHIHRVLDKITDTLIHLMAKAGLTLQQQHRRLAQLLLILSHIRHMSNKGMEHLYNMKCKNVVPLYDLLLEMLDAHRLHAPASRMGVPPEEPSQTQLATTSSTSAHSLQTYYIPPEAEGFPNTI

[8] = tested on: Rattus norvegicus; test: Total bone mineral density in ovariectomized rat when treated with compound at 10 mg/kg dose; format: functional
[9] = target: Estrogen receptor beta (Mus musculus, UniProt O08537)
Chain of Estrogen receptor beta (Mus musculus, UniProt O08537) (O08537 whole entry): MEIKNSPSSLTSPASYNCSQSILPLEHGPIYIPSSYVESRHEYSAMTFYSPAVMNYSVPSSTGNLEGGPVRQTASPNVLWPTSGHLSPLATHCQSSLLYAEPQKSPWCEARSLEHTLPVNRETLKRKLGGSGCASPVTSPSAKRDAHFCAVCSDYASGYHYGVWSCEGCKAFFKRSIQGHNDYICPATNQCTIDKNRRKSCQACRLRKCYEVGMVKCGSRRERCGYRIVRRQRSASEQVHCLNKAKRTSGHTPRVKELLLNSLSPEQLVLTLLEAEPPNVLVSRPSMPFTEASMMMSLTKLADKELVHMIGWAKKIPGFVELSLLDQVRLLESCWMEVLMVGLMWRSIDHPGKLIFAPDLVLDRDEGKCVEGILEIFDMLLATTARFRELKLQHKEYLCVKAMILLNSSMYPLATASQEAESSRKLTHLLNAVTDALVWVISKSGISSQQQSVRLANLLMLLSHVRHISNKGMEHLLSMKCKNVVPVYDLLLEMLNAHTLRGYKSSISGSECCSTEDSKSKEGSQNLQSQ

[10] = organism: Mus musculus; details: dose 50 mg/kg
Description: Weight of mouse uterine when treated with compound at 50 mg/kg dose was determined

[11] = organism: Rattus norvegicus; test: Effect of combination of compound and PPT on rat vasomotor instability in terms of tail skin temperature change 15 min after naloxone injection; format: functional
[12] = target: Estrogen receptor beta (Rattus norvegicus) (UniProt Q62986); details: Prostate gland; remark: listed apart in the source

Structure (SMILES) | IC50 [1] [nM] | IC50 [2] [nM] | also measured
Oc1ccc2c(-c3ccccc3O)noc2c1 | 3000 |  | 
Cc1cc(O)c2cccc(-c3nc4ccc(O)cc4o3)c2c1 | 163 | 6 | 
Oc1cc(Br)c2oc(-c3ccc(O)c(F)c3)nc2c1 |  |  | Density [3]: 312.34 mg/cm3; IC50 [4]: 2 nM; IC50 [5]: 171 nM; Weight [6]: 119 mg; IC50 [7]: 199 nM; Density [8]: 501.4 mg/cm3; IC50 [9]: 2.7 nM
Oc1cc(/C=C\F)c2oc(-c3ccc(O)c(F)c3)nc2c1 | 376 | 3.2 | Weight [10]: 9.8 mg
C=Cc1cc(O)cc2nc(-c3cc(F)c(O)cc3F)oc12 | 4040 | 66 | 
COC(=O)c1cc(O)cc2nc(-c3ccc(O)cc3)oc12 | > 5000 | 356 | 
C=CCc1cc(O)cc2nc(-c3ccc(O)cc3F)oc12 | 98 | 3 | 
Oc1ccc2nc(-c3cccc(O)c3O)oc2c1 | 2350 |  | 
C=Cc1cc(O)cc2nc(-c3ccc(O)c(F)c3)oc12 [PRINABEREL] |  |  | IC50 [4]: 3.14 nM; IC50 [5]: 618 nM; Weight [6]: 132 mg; IC50 [7]: 746 nM; IC50 [9]: 3.7 nM
C=CCc1cc(O)cc2nc(-c3ccc(O)cc3)oc12 | 727 | 13 | Weight [10]: 10 mg
Oc1ccc(-c2noc3ccccc23)c(O)c1 | 6100 | 718 | 
N#Cc1cc(O)cc2nc(-c3ccc(O)cc3F)oc12 | 138 | 2.4 | 
Oc1ccc(-c2nc3cc(O)cc(/C=C\Br)c3o2)cc1 | 4650 | 45 | 
Oc1ccc2c(-c3nc4cc(F)c(O)cc4o3)cccc2c1 | 434 | 46 | 
COc1c(Br)c(O)c(Br)c2nc(-c3ccc(O)c(F)c3)oc12 | 559 | 64 | 
C=Cc1cc(O)cc2nc(-c3ccc(O)cc3F)oc12 |  |  | Weight [10]: 10.3 mg
Oc1ccc(-c2nc3ccc(O)cc3o2)cc1 |  |  | IC50 [4]: 20 nM; IC50 [5]: 821 nM; IC50 [7]: 1340 nM; IC50 [9]: 9.5 nM
C=Cc1cc(O)cc2nc(-c3ccc(O)cc3)oc12 | 447 |  | 
C=Cc1cc(O)cc2nc(-c3ccc(O)cc3C)oc12 | 1120 | 27 | 

Structure (SMILES) | IC50 [1] [nM] | IC50 [2] [nM] | also measured
CCCCOc1cc(-c2nc3ccc(O)cc3o2)ccc1O | 6240 | 3660 | 
C/C=C\c1cc(O)cc2nc(-c3ccc(O)cc3F)oc12 | 539 | 23 | 
O=Cc1cc(O)cc2nc(-c3ccc(O)cc3)oc12 |  |  | IC50 [4]: 29 nM; IC50 [5]: 2250 nM; IC50 [9]: 16.5 nM
Oc1ccc(-c2noc3ccc(O)cc23)c(O)c1 | 4070 | 138 | 
O=C(O)c1cc(O)cc2nc(-c3ccc(O)cc3)oc12 | > 5000 | > 5000 | 
Oc1ccc(-c2nc3cc(O)ccc3o2)cc1 |  |  | IC50 [4]: 2.2 nM; IC50 [7]: 1630 nM; IC50 [9]: 9.9 nM
Oc1ccc2nc(-c3ccc(O)c(F)c3)oc2c1 | 8430 |  | 
Oc1ccc(-c2nc3cc(O)cc(Br)c3o2)cc1 |  |  | Density [3]: 287.56 mg/cm3; IC50 [4]: 1.2 nM; IC50 [5]: 132 nM; Activity [11]: 1.9; IC50 [7]: 132 nM; Density [8]: 525.51 mg/cm3; IC50 [9]: 1.7 nM
COc1cc(O)c(Br)c2nc(-c3ccc(O)c(F)c3)oc12 | 2670 | 52 | 
N#Cc1cc(O)cc2nc(-c3ccc(O)cc3)oc12 |  |  | IC50 [4]: 4 nM; IC50 [5]: 362 nM; Activity [11]: 2.7; IC50 [9]: 4.3 nM
N#Cc1cc(O)ccc1-c1noc2cc(O)ccc12 | 264 | 12 | 
Oc1ccc(-c2noc3cc(O)ccc23)cc1 |  |  | IC50 [4]: 36 nM; IC50 [5]: 716 nM; IC50 [7]: 1090 nM; IC50 [9]: 13 nM
Oc1ccc(-c2nc3cc(O)cc(/C=C\Br)c3o2)c(F)c1 | 196 | 16 | 
N#CCc1cc(O)ccc1-c1noc2cc(O)ccc12 | 717 | 96 | 
C/C=C\c1cc(O)cc2nc(-c3ccc(O)cc3)oc12 | 775 | 1.42 | 
O/N=C/c1cc(O)ccc1-c1noc2cc(O)ccc12 | 2390 | 383 | 
C=Cc1cc(O)cc2nc(-c3c(F)cc(O)cc3F)oc12 | 249 | 2.2 | Weight [10]: 10 mg
CC(C)C(=O)Nc1ccc([N+](=O)[O-])c(C(F)(F)F)c1 |  |  | Weight [12]: 15.2 mg
